This note sets out measurements from patent US11149054B2, “Oxysterols and methods of use thereof” (Sage Therapeutics, Inc., priority 2016, dated 2021).

Read-outs that look alike come from different tables or passages of the source.

As a reminder, the Emax is the size of the effect at its maximum, as opposed to the concentration needed. In general, EC50 refers to the concentration giving half of the maximal effect.

Assay [1] has as its target GlunN1/GluN2A glutamate receptors (Homo sapiens (Human), UniProt Q05586+Q12879). As to the kind of experiment: Whole-cell patch clamp of mammalian cells (Ionworks Barracuda), positive allosteric modulation, GluN1/GluN2A. The assay is classed as cell-based. The procedure: (§1) The measurements were performed using Ion Works Barracuda platform following this procedure:
(§2) Electrophysiological Procedures:
(§3) • a) Intracellular solution (mM): 50 mM CsCl, 90 mM CsF, 2 mM MgCl2, 5 mM EGTA, 10 mM HEPES. Adjust to pH 7.2 with CsOH. • b) Extracellular solution, HB-PS (composition in mM): NaCl, 137; KCl, 1.0; CaCl2), 5; HEPES, 10; Glucose, 10; pH adjusted to 7.4 with NaOH (refrigerated until use). • c) Holding potential: −70 mV, potential during agonist/PAM application: −40 mV. Recording Procedure: • a) Extracellular buffer will be loaded into the PPC plate wells (11 μL per well). Cell suspension will be pipetted into the wells (9 μL per well) of the PPC planar electrode. • b) Whole-cell recording configuration will be established via patch perforation with membrane currents recorded by on-board patch clamp amplifiers. • c) Two recordings (scans) will be performed. First, during pre-application of test article alone (duration of pre-application—[…]) and second, during test articles and agonist (EC20 L-glutamate and 30 μM glycine) co-application to detect positive modulatory effects of the test article. […] Potentiating Effect of Positive Allosteric Modulators (PAM) on the Channel
(§4) PAM concentration-response data will be fitted to an equation of the form: % Activation=% L-glutamate EC20+{(% MAX−% L-glutamate EC20)/[1+([Test]/EC50)^N]}, where [Test] will be the concentration of PAM (test article), EC50 will be the concentration of PAM producing half-maximal activation, N will be the Hill coefficient, % L-glutamate EC20 will be the percentage of the current Elicited with L-glutamate EC20, % MAX is the percentage of the current activated with the highest dose of PAM co-admitted with L-glutamate EC20 and % Activation will be the percentage of the current elicited with L-glutamate EC10-30 at each PAM concentration. The maximal amplitude of the evoked currents are measured and defined as Peak Current Amplitude (PCA).
For orientation: In patch-clamp work, channel activity is measured electrically.

In assay [2] the target is GluN2B glutamate receptors (Homo sapiens (Human), UniProt Q05586+Q13224). As to the kind of experiment: Whole-cell patch clamp of mammalian cells (Ionworks Barracuda), positive allosteric modulation, GluN2B. The following applies: for Emax: read-out: Avg Emax 2B (%). The assay is classed as cell-based. The procedure:
as §1, §2, §3, §4

Setting [3] is: HEK293 cells, % potentiation of current elicited with EC20 L-glutamate and 30 μM glycine, read-out: Avg Emax 2A (%).
Where [4] appears, read: % potentiation of current elicited with EC20 L-glutamate and 30 μM glycine.
The mark [5] stands for this setting: HEK293, read-out: Avg Emax 2A (%).
Where [6] appears, read: HEK293 cells, co-application with EC20 L-glutamate and 30 μM glycine, 8-point concentration-response, read-out: Avg EC50 2A.
[7] abbreviates: co-application with EC20 L-glutamate and 30 μM glycine, 8-point concentration-response, read-out: Avg EC50 2B.

GlunN1/GluN2A glutamate receptors, sequence (Q12879 23-1464, other chains not shown): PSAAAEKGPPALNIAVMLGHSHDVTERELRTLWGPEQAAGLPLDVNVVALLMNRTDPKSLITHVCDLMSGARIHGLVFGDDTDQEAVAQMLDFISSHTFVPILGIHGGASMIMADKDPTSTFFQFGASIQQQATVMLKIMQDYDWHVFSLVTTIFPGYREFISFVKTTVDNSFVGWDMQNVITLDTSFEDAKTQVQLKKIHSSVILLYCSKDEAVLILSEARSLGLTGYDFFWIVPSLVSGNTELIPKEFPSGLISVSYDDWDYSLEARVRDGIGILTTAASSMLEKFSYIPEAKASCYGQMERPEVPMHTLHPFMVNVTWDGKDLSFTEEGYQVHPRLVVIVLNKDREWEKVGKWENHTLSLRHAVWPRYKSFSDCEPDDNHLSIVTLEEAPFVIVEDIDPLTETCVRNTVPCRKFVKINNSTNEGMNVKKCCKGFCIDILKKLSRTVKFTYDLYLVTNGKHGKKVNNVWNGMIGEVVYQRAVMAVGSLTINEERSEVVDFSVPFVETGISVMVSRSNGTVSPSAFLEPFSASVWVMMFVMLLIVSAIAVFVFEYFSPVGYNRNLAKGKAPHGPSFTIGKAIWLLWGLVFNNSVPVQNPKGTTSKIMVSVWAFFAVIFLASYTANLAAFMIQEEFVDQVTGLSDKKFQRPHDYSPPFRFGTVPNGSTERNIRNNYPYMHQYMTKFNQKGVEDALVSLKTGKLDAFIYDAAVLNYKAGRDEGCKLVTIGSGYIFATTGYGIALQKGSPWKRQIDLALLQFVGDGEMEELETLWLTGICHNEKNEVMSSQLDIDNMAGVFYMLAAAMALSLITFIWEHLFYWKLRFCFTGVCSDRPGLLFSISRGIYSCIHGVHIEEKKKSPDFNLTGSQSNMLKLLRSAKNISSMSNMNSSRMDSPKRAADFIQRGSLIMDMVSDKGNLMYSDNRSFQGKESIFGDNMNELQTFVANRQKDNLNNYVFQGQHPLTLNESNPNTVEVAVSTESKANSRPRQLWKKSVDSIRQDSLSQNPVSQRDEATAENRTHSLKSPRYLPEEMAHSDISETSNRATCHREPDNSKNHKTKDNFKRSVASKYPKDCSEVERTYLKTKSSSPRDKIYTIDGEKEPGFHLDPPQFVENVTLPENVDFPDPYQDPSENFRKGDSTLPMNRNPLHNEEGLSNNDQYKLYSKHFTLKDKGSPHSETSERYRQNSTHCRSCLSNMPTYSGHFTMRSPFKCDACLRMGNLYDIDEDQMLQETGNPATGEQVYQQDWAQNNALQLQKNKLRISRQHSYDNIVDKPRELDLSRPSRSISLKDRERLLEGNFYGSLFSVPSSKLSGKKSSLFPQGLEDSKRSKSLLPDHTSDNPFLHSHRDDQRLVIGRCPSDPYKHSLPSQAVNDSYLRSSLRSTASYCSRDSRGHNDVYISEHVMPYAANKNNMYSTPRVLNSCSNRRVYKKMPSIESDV
GluN2B glutamate receptors, sequence (Q13224 27-1484, other chains not shown): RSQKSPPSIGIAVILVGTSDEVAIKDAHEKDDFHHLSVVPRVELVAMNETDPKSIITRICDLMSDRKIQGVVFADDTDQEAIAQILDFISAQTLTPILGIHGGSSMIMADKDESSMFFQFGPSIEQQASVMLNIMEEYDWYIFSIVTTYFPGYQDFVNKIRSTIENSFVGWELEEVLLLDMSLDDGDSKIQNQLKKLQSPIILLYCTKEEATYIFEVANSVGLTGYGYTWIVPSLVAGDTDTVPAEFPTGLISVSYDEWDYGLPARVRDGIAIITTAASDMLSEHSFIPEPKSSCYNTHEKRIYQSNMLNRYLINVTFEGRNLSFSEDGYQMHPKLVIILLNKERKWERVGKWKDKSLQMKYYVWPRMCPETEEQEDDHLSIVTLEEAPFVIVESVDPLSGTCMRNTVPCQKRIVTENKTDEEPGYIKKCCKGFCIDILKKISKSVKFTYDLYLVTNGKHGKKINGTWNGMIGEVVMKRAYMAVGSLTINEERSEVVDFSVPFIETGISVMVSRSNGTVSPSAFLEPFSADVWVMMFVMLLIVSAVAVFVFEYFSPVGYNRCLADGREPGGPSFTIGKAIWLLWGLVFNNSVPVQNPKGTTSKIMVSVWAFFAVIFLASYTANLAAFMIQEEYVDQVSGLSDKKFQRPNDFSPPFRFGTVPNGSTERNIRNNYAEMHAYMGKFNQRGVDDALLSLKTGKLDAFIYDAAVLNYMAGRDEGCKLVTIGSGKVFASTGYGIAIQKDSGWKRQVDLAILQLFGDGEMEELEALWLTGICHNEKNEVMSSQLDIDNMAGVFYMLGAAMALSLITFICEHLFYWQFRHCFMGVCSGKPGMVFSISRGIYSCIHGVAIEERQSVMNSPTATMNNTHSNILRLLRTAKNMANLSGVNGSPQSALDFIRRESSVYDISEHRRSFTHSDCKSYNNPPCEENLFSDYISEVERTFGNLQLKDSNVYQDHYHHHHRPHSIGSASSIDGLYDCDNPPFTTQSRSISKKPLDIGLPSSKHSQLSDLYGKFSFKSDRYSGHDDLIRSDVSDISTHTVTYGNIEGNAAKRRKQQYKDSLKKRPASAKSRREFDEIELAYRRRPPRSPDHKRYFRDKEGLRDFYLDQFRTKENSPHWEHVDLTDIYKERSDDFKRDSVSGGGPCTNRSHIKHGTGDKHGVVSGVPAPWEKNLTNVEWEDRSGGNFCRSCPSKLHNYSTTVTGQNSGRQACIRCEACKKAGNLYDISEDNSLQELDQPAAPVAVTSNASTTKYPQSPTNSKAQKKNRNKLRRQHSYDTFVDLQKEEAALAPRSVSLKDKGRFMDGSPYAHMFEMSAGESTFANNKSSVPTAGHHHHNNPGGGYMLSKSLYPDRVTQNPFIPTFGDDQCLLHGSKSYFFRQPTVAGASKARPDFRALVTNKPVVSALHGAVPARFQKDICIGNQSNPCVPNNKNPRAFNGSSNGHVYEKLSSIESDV

As to `CC[C@]1(O)CC[C@H]2C(=CC[C@@H]3[C@@H]2CC[C@]2(C)[C@@H]([C@H](C)CCC[C@H](C)O)CC[C@@H]32)C1` [Compound 9911], the maximum response (Emax) amounted to 234% in assay [1] (setting [3]) and 326% in assay [2] (setting [4]).
Regarding `CC[C@]1(O)CC[C@H]2C(=CC[C@@H]3[C@@H]2CC[C@]2(C)[C@@H]([C@H](C)CC[C@H](O)C(C)C)CC[C@@H]32)C1` [Compound 8462], the EC50 in assay [1] amounted to 0.17 µM; in assay [2] it was 0.0962 µM.
Turning to `CC[C@@H](O)CC[C@@H](C)[C@H]1CC[C@H]2[C@@H]3CC[C@H]4C[C@](O)(CC)CC[C@@H]4[C@H]3CC[C@]12C` [Compound 9142], the 50% effective concentration (EC50) was over 10 µM in assay [1] and 0.0704 µM in assay [2]. For the same compound, the Emax in assay [1] (setting [5]) worked out at 41.6%; in assay [2] it was 44.8%.
In the case of `C[C@H](CCC(O)c1cccnc1)[C@H]1CC[C@H]2[C@@H]3CC=C4C[C@@](C)(O)CC[C@]4(C)[C@H]3CC[C@]12C` (stereo partly drawn) [Compound 255], the figures for the Emax in assay [1] (setting [3]) and in assay [2] (setting [4]) were 159% and 132%, respectively. The EC50 is 0.646 µM in assay [1] (setting [6]) and 0.153 µM in assay [2] (setting [7]).
`C[C@H](CC[C@H](O)C1CCCCC1)[C@H]1CC[C@H]2[C@@H]3CC[C@H]4C[C@](O)(C(F)(F)F)CC[C@]4(C)[C@H]3CC[C@]12C` [Compound 4155]: the EC50 in assay [1] stood at 0.442 µM; in assay [2], 0.612 µM. The Emax in assay [1] (setting [3]) amounted to 164%; in assay [2] (setting [4]) it was 198%.
Regarding `C[C@H](CCC(O)(c1ccccc1)C(F)(F)F)[C@H]1CC[C@H]2[C@@H]3CC=C4C[C@@](C)(O)CC[C@]4(C)[C@H]3CC[C@]12C` (stereo partly drawn) [Compound 559], the maximum response (Emax) in assay [1] (setting [3]) was 204%; in assay [2] (setting [4]), 373%.
As for `CC[C@@H](O)CC[C@@H](C)[C@H]1CC[C@H]2[C@@H]3CC=C4C[C@](O)(CC)CC[C@@H]4[C@H]3CC[C@]12C` [Compound 8584], the results for the half-maximal effective concentration (EC50) in assay [1] and in assay [2] were 0.332 µM and 0.244 µM, respectively. Also, the figures for the maximum response (Emax) in assay [1] (setting [3]) and in assay [2] (setting [4]) were 284% and 363%, respectively.
On to `CC[C@]1(O)CC[C@@]2(C)C(=CC[C@H]3[C@@H]4CC[C@H]([C@H](C)CC[C@@H](O)c5ccc(C#N)cc5)[C@@]4(C)CC[C@@H]32)C1` (single isomer, unassigned) [Compound 6680], for which the values for the EC50 in assay [1] and in assay [2] were 1.37 µM and 0.464 µM, respectively. Further, the results for the maximum response (Emax) in assay [1] (setting [3]) and in assay [2] (setting [4]) were 175% and 123%, respectively.
Take `CC[C@]1(O)CC[C@H]2[C@@H](CC[C@@H]3[C@@H]2CC[C@]2(C)[C@@H]([C@H](C)CC[C@H](O)C(C)C)CC[C@@H]32)C1` [Compound 4A77]: the Emax in assay [1] (setting [3]) amounted to 382%; in assay [2] (setting [4]) it was 254%. Moreover, the figures for the half-maximal effective concentration (EC50) in assay [1] (setting [6]) and in assay [2] (setting [7]) were 0.427 µM and 0.285 µM, respectively.
`CC(C)C(O)CC[C@@H](C)[C@H]1CC[C@H]2[C@@H]3CC[C@H]4C[C@@](C)(O)CC[C@@H]4[C@H]3CC[C@]12C` (stereo partly drawn) [Compound 175]: the EC50 came out at 0.574 µM in assay [1] and 0.288 µM in assay [2]. The Emax amounted to 367% in assay [1] (setting [3]) and 279% in assay [2] (setting [4]).
As for `C[C@H](CCC1(O)CCC(OC(F)F)CC1)[C@H]1CC[C@H]2[C@@H]3CC[C@H]4C[C@](O)(C(F)(F)F)CC[C@]4(C)[C@H]3CC[C@]12C` (stereo partly drawn) [Compound 5131], the Emax in assay [1] (setting [5]) was determined as 52.9%; in assay [2] it was 39%.
On to `CCC1(C)CCC(O)(CC[C@@H](C)[C@H]2CC[C@H]3[C@@H]4CC[C@H]5C[C@](O)(C(F)(F)F)CC[C@]5(C)[C@H]4CC[C@]23C)CC1` (stereo partly drawn) [Compound 4906], for which the Emax in assay [1] (setting [3]) amounted to 8.8%; in assay [2] (setting [4]), 14.8%. The EC50 in assay [1] (setting [6]) and in assay [2] (setting [7]) was over 10 µM throughout.
Take `CC[C@]1(O)CC[C@H]2C(=CC[C@@H]3[C@@H]2CC[C@]2(C)[C@@H]([C@H](C)CCCC(C)(C)O)CC[C@@H]32)C1` [Compound 194]: the values for the maximum response (Emax) in assay [1] (setting [3]) and in assay [2] (setting [4]) were 162% and 192%, respectively. The concentration giving a half-maximal response (EC50) in assay [1] (setting [6]) is 0.2 µM.
As to `C[C@H](O)CC[C@@H](C)[C@H]1CC[C@H]2[C@@H]3CC=C4C[C@](O)(C(F)(F)F)CC[C@]4(C)[C@H]3CC[C@]12C` [Compound 2602], the results for the 50% effective concentration (EC50) in assay [1] and in assay [2] were 0.289 µM and 0.279 µM, respectively. The Emax in assay [1] (setting [3]) came out at 163%; in assay [2] (setting [4]), 367%.
On the same counts, the results for `CC[C@]1(O)CC[C@@]2(C)C(=CC[C@H]3[C@@H]4CC[C@H]([C@H](C)CC[C@@H](O)c5ccccc5)[C@@]4(C)CC[C@@H]32)C1` [Compound 861] are 0.2 µM, 0.247 µM, 183% and 390%.
With `CC[C@@H](O)CCC[C@@H](C)[C@H]1CC[C@H]2[C@@H]3CC=C4C[C@](O)(CC)CC[C@@H]4[C@H]3CC[C@]12C` [Compound 10841], the concentration giving a half-maximal response (EC50) in assay [1] and in assay [2] was over 10 µM each time. The figures for the maximum response (Emax) in assay [1] (setting [5]) and in assay [2] were 15.6% and 30.1%, respectively.
Regarding `CC[C@]1(O)CC[C@@]2(C)[C@@H](CC[C@@H]3[C@@H]2CC[C@]2(C)[C@@H]([C@H](C)CCC(O)c4ccccc4)CC[C@@H]32)C1` (stereo partly drawn) [Compound 6544], the EC50 in assay [1] stood at 0.559 µM; in assay [2] it was 0.498 µM. Further, the Emax in assay [1] (setting [3]) is 253%; in assay [2] (setting [4]) it was 415%.
For `CC[C@]1(O)CC[C@@]2(C)C(=CC[C@H]3[C@@H]4CC[C@H]([C@H](C)CC[C@@H](O)c5cccc(F)c5)[C@@]4(C)CC[C@@H]32)C1` (single isomer, unassigned) [Compound 6895], the concentration for a half-maximal effect (EC50) in assay [1] is 0.174 µM; in assay [2] it was 0.329 µM. In addition, the maximal effect (Emax) is 241% in assay [1] (setting [3]) and 354% in assay [2] (setting [4]).
As to `C[C@H](CC[C@]1(O)CCOC1)[C@H]1CC[C@H]2[C@@H]3CC[C@H]4C[C@](O)(C(F)(F)F)CC[C@]4(C)[C@H]3CC[C@]12C` [Compound 2707], the maximum response (Emax) in assay [1] (setting [3]) is 113%; in assay [2] (setting [4]) it was 259%. For the same compound, the EC50 came out at 0.119 µM in assay [1] (setting [6]) and 0.103 µM in assay [2] (setting [7]).
`C[C@H](CCC(O)C(C)(C)C)[C@H]1CC[C@H]2[C@@H]3CC=C4C[C@](O)(C(F)(F)F)CC[C@]4(C)[C@H]3CC[C@]12C` (stereo partly drawn) [Compound 2500]: the 50% effective concentration (EC50) in assay [1] was found to be 0.0633 µM; in assay [2], 0.0911 µM.
As for `CC[C@]1(O)CC[C@H]2C(=CC[C@@H]3[C@@H]2CC[C@]2(C)[C@@H]([C@H](C)CCC4(O)CCC(C)(C)CC4)CC[C@@H]32)C1` [Compound 8946], the concentration giving a half-maximal response (EC50) in assay [1] was determined as 1.6 µM; in assay [2] it was 1.35 µM. The values for the Emax in assay [1] (setting [3]) and in assay [2] (setting [4]) were 263% and 231%, respectively.
With `CC[C@]1(O)CC[C@@]2(C)C(=CC[C@H]3[C@@H]4CC[C@H]([C@H](C)CC[C@H](O)c5cccc(C#N)c5)[C@@]4(C)CC[C@@H]32)C1` [Compound 6998], the Emax in assay [1] (setting [3]) came out at 338%; in assay [2] (setting [4]), 303%. Further, the EC50 was 0.358 µM in assay [1] (setting [6]) and 0.304 µM in assay [2] (setting [7]).
For the compound `C[C@H](CCC[C@H](O)C(C)(C)C)[C@H]1CC[C@H]2[C@@H]3CC[C@H]4C[C@](O)(C(F)(F)F)CC[C@]4(C)[C@H]3CC[C@]12C` [Compound 12156], the Emax in assay [1] (setting [3]) came to 43.2%; in assay [2] (setting [4]), 111%.
With `CC[C@]1(O)CC[C@H]2[C@@H](CC[C@@H]3[C@@H]2CC[C@]2(C)[C@@H]([C@H](C)CCCC(C)(C)O)CC[C@@H]32)C1` [Compound 9670], the EC50 in assay [1] amounted to 0.366 µM; in assay [2], 0.22 µM. In addition, the Emax in assay [1] (setting [3]) was 154%; in assay [2] (setting [4]), 213%.
For `C[C@H](CCC1(O)CCC2(CC1)CC2)[C@H]1CC[C@H]2[C@@H]3CC[C@H]4C[C@](O)(C(F)(F)F)CC[C@]4(C)[C@H]3CC[C@]12C` [Compound 4805] the same measures were 0.356 µM, 0.362 µM, 175% and 129%.
